Values quoted from earlier work as cited in patent EP4473960A1, “VACCINE FORMULATION COMPRISING A SURFACTANT THAT DOES NOT COMPRISE AN ESTER BOND” (Vaxxinova Nederland BV, priority 2023, dated 2024).
Where two headings read alike, the source gives them in different places.

[1] = Table 3A, HLB values of surfactants discussed
[2] = Table 2, surfactants without ester bond

| Substance | HLB [1] | HLB [2] | Hydrophilic-Lipophilic Balance (HLB) |
| --- | --- | --- | --- |
| Sorbitan palmitate [Span 40] | 6.7 |  |  |
| Polyoxyethylen (2) cetylether [Brij 52] | 5,3 | 5,3 |  |
| Polyoxyethylen (25) cetylstearylether [Cremophor A25] | 15-17 | 15-17 |  |
| Polyoxyethylen (20) cetylstearylether [Cremophor A20] |  | 14-16 |  |
| Polyoxyethylen (9) laurylether [Thesit] |  | 11.2 |  |
| Polyoxyethylen (6) cetylstearylether [Cremophor A6] | 10 - 12 | 10-12 |  |
| Polyoxyethylen (4) laurylether [Brij 30] | 9,7 | 9,7 |  |
| Sorbitan monooleate [Span 80] | 4,3 |  | 4,3 |
| Sorbitan stearate [Span 60] | 4,7 |  |  |
| Polyoxyethylen (10) monodecylether |  | 14.6 |  |
| Polyoxyethylen (2) oleylether [Brij 92] | 4,9 | 4,9 |  |
| Sorbitan tristearate [Span 65] | 2,2 |  |  |
| Polyoxyethylen (2) stearylether [Brij 72] | 4,9 | 4,9 |  |
| Polyoxyethylen (10) tridecylether |  | 13.7 |  |
